Results published in ChEMBL document CHEMBL1201862, “PubChem BioAssay data set” (2004).
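Dose response: 5 concentrations. Exposure: 48 h. Format: 96-well plates. Endpoint: linear interpolation; highest concentration if not reached. GI50 is the concentration that inhibits growth by half.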 Activity calls are given as the source filed them. No stated cut-off is given here; in the data, active = GI50 up to about 1.1 µM and inactive = higher.

Experiments:
Test in all cases: growth of human tumour cells (NCI), 48 h
NCI-H23 = system: NCI-H23
SK-MEL-2 = system: SK-MEL-2
HOP-92 = system: HOP-92
UO-31 = system: UO-31
SK-OV-3 = system: SK-OV-3
IGROV-1 = system: IGROV-1
RPMI-8226 = system: RPMI-8226
HCT-15 = system: HCT-15
Malme-3M = system: Malme-3M
COLO 205 = system: COLO 205
NCI-H460 = system: NCI-H460
OVCAR-3 = system: OVCAR-3
SF-539 = system: SF-539
SF-268 = system: SF-268
M14 = system: M14
UACC-257 = system: UACC-257
SNB-19 = system: SNB-19
KM12 = system: KM12
HCT-116 = system: HCT-116
SR = system: SR

SMILES | GI50 (NCI-H23) | GI50 (SK-MEL-2) | GI50 (HOP-92) | GI50 (UO-31) | GI50 (SK-OV-3) | GI50 (IGROV-1) | GI50 (RPMI-8226) | GI50 (HCT-15) [µM] | GI50 (Malme-3M) | GI50 (COLO 205) | GI50 (NCI-H460) | GI50 (OVCAR-3) | GI50 (SF-539) | GI50 (SF-268) | GI50 (M14) | GI50 (UACC-257) | GI50 (SNB-19) | GI50 (KM12) | GI50 (HCT-116) | GI50 (SR)
CC1Oc2c(c(O)cc3oc(=O)cc(-c4ccccc4)c23)C(=O)C1C (stereo not drawn) | > 100 µM (inactive) | > 100 µM (inactive) | > 100 µM (inactive) | > 100 µM (inactive) | > 100 µM (inactive) | > 100 µM (inactive) | > 100 µM (inactive) | > 100 | > 100 µM (inactive) | > 100 µM (inactive) | > 100 µM (inactive) | > 100 µM (inactive) | > 100 µM (inactive) | > 100 µM (inactive) | > 100 µM (inactive) | – | – | – | – | –
Cc1ccc(S(=O)(=O)N(CC(=O)O)c2ccccc2)cc1 | > 100 µM (inactive) | > 100 µM (inactive) | > 100 µM (inactive) | > 100 µM (inactive) | > 100 µM (inactive) | > 100 µM (inactive) | > 100 µM (inactive) | > 100 | > 100 µM (inactive) | > 100 µM (inactive) | > 100 µM (inactive) | > 100 µM (inactive) | > 100 µM (inactive) | > 100 µM (inactive) | > 100 µM (inactive) | > 100 µM (inactive) | > 100 µM (inactive) | > 100 µM (inactive) | – | –
C1CC2=C(C1)[Se]C(=C1Sc3nsnc3S1)[Se]2 | > 100 µM (inactive) | > 100 µM (inactive) | > 100 µM (inactive) | > 100 µM (inactive) | > 100 µM (inactive) | > 100 µM (inactive) | > 100 µM (inactive) | 48.3 | 71.3 µM (inactive) | > 100 µM (inactive) | > 100 µM (inactive) | > 100 µM (inactive) | > 100 µM (inactive) | > 100 µM (inactive) | > 100 µM (inactive) | > 100 µM (inactive) | > 100 µM (inactive) | > 100 µM (inactive) | > 100 µM (inactive) | –
COc1cccc(C2C(C(=O)O)=C(CO)Oc3cc4c(cc32)OCO4)c1OC (stereo not drawn) | > 100 µM (inactive) | > 100 µM (inactive) | 97.7 µM (inactive) | > 100 µM (inactive) | > 100 µM (inactive) | > 100 µM (inactive) | > 100 µM (inactive) | > 100 | > 100 µM (inactive) | > 100 µM (inactive) | > 100 µM (inactive) | > 100 µM (inactive) | > 100 µM (inactive) | > 100 µM (inactive) | > 100 µM (inactive) | – | > 100 µM (inactive) | – | – | –
C=C1C(=O)O[C@H]2[C@H]1[C@@H](OC(=O)C=C(C)C)CC1=C[C@@H](C[C@@]3(C)O[C@@H]23)OC1=O | 3.13 µM (inactive) | 9.1 µM (inactive) | 2.1 µM (inactive) | 7.74 µM (inactive) | 20.9 µM (inactive) | 10.8 µM (inactive) | – | 1.93 | 8.04 µM (inactive) | – | – | 1.59 µM (inactive) | 2.24 µM (inactive) | – | – | 2.18 µM (inactive) | 22.3 µM (inactive) | 5.74 µM (inactive) | 3.4 µM (inactive) | –
CCOc1ccc2nc(NC(=O)C(=O)C3C(=O)C(CC4C(=O)c5ccccc5C4=O)C(=O)CC3(C)C)sc2c1 (stereo not drawn) | 95.1 µM (inactive) | > 100 µM (inactive) | 34.6 µM (inactive) | 18.9 µM (inactive) | > 100 µM (inactive) | 44 µM (inactive) | – | > 100 | – | > 100 µM (inactive) | > 100 µM (inactive) | 66.7 µM (inactive) | > 100 µM (inactive) | > 100 µM (inactive) | > 100 µM (inactive) | > 100 µM (inactive) | > 100 µM (inactive) | > 100 µM (inactive) | 86.7 µM (inactive) | –
CC#CS(=O)(=O)c1ccccc1 | 5.2 µM (inactive) | 14.2 µM (inactive) | 2.51 µM (inactive) | 1.86 µM (inactive) | 17.3 µM (inactive) | 11.9 µM (inactive) | – | 2.88 | 2.88 µM (inactive) | 11.2 µM (inactive) | 17.5 µM (inactive) | 1.63 µM (inactive) | 4.08 µM (inactive) | 15.9 µM (inactive) | 5.87 µM (inactive) | 2.88 µM (inactive) | 14.2 µM (inactive) | – | 4.36 µM (inactive) | –
COc1cc(CCCOC2OC(COC3OCC(O)C(O)C3O)C(O)C(O)C2O)cc2cc(-c3ccc4c(c3)OCO4)oc12 (stereo not drawn) | > 175 µM (inactive) | > 175 µM (inactive) | > 175 µM (inactive) | > 175 µM (inactive) | > 175 µM (inactive) | > 175 µM (inactive) | > 175 µM (inactive) | > 175 | > 175 µM (inactive) | > 175 µM (inactive) | > 175 µM (inactive) | > 175 µM (inactive) | > 175 µM (inactive) | > 175 µM (inactive) | – | > 175 µM (inactive) | > 175 µM (inactive) | > 175 µM (inactive) | > 175 µM (inactive) | –
CC1=C(C)[C@@]2(C)O[C@@]2(C)O[C@@]2(C)O[C@@]12C | > 100 µM (inactive) | > 100 µM (inactive) | > 100 µM (inactive) | > 100 µM (inactive) | > 100 µM (inactive) | – | – | > 100 | > 100 µM (inactive) | > 100 µM (inactive) | – | – | – | > 100 µM (inactive) | > 100 µM (inactive) | > 100 µM (inactive) | > 100 µM (inactive) | > 100 µM (inactive) | > 100 µM (inactive) | > 100 µM (inactive)
CC(=O)OC1CC2(O)C(CCC3(C)C(c4ccc(=O)oc4)CCC32O)C2(C)C1=CC(O)C1OC12 (stereo not drawn) | 0.0275 µM (active) | 0.0724 µM (active) | 0.0538 µM (active) | 0.0713 µM (active) | 0.0843 µM (active) | 0.0653 µM (active) | 0.0675 µM (active) | 0.053 | 0.0419 µM (active) | 0.0726 µM (active) | 0.0279 µM (active) | 0.0316 µM (active) | 0.0375 µM (active) | 0.0295 µM (active) | – | 0.0441 µM (active) | 0.118 µM (active) | 0.067 µM (active) | 0.0296 µM (active) | –
C=CCc1cccc(/C=N\N/C(N)=N/O)c1O | 3.22 µM (inactive) | 6.3 µM (inactive) | 6.56 µM (inactive) | 1.45 µM (inactive) | 4.84 µM (inactive) | 4.59 µM (inactive) | 2.22 µM (inactive) | 2.19 | 9.2 µM (inactive) | 5.01 µM (inactive) | 3.2 µM (inactive) | 2.26 µM (inactive) | 2.64 µM (inactive) | 3.03 µM (inactive) | – | 4.62 µM (inactive) | 11.5 µM (inactive) | 4.36 µM (inactive) | 5.33 µM (inactive) | –
O=P1(c2ccccc2)Nc2ccccc2SSc2ccccc2N1 | 16.6 µM (inactive) | 16.7 µM (inactive) | 15.4 µM (inactive) | 14.1 µM (inactive) | 25.5 µM (inactive) | 19.7 µM (inactive) | 18.3 µM (inactive) | 17 | 18.4 µM (inactive) | 20 µM (inactive) | 18.4 µM (inactive) | 15.1 µM (inactive) | 19.9 µM (inactive) | 17.5 µM (inactive) | – | 15.8 µM (inactive) | 16.3 µM (inactive) | 16.7 µM (inactive) | 16.8 µM (inactive) | –
